The target of test [1] is T1, human AT1 receptor (Homo sapiens, UniProt P30556).
T1 construct: expressed in transfected cells; host or cells: CHO-K1
T1 sequence (P30556 1-359): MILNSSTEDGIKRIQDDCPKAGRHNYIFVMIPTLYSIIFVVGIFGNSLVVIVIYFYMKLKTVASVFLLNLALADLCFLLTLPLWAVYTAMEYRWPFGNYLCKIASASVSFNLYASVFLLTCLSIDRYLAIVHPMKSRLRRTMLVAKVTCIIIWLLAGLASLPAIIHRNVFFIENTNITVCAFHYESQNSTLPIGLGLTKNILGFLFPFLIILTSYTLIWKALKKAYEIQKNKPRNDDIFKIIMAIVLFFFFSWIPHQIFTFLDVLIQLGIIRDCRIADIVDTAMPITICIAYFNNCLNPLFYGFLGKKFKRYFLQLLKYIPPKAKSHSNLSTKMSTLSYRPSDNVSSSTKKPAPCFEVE
The test can be described thus: AT1 radioligand binding assay (displacement of [Eu]AngII). Particulars: membranes of CHO-K1 cells expressing cloned human AT1 receptor; values given as lower bounds; read-out: AT1 pKi (converted). The method, then:
A. AT1 and AT2 Radioligand Binding Assays
These in vitro assays were used to assess the ability of test compounds to bind to the AT1 and the AT2 receptors.
Membrane Preparation from Cells Expressing Human AT1 or AT2 Receptors
Chinese hamster ovary (CHO-K1) derived cell lines stably expressing the cloned human AT1 or AT2 receptors, respectively, were grown in HAM's-F12 medium supplemented with 10% fetal bovine serum, 10 μg/ml penicillin/streptomycin, and 500 μg/ml geneticin in a 5% CO2 humidified incubator at 37° C. AT2 receptor expressing cells were grown in the additional presence of 100 nM PD123,319 (AT2 antagonist). When cultures reached 80-95% confluence, the cells were washed thoroughly in PBS and lifted with 5 mM EDTA. Cells were pelleted by centrifugation and snap frozen in MeOH-dry ice and stored at −80° C. until further use.
For membrane preparation, cell pellets were resuspended in lysis buffer (25 mM Tris/HCl pH 7.5 at 4° C., 1 mM EDTA, and one tablet of Complete Protease Inhibitor Cocktail Tablets with 2 mM EDTA per 50 mL buffer (Roche cat.#1697498, Roche Molecular Biochemicals, Indianapolis, Ind.)) and homogenized using a tight-fitting Dounce glass homogenizer (10 strokes) on ice. The homogenate was centrifuged at 1000×g, the supernatant was collected and centrifuged at 20,000×g. The final pellet was resuspended in membrane buffer (75 mM Tris/HCl pH 7.5, 12.5 mM MgCl2, 0.3 mM EDTA, 1 mM EGTA, 250 mM sucrose at 4° C.) and homogenized by extrusion through a 20G gauge needle. Protein concentration of the membrane suspension was determined by the method described in Bradford (1976) Anal Biochem. 72:248-54. Membranes were snap frozen in MeOH-dry ice and stored at −80° C. until further use.
Ligand Binding Assay to Determine Compound Affinities for the Human AT1 and AT2 Angiotensin Receptors
Binding assays were performed in 96-well Acrowell filter plates (Pall Inc., cat.#5020) in a total assay volume of 100 μL with 0.2 μg membrane protein for membranes containing the human AT1 receptor, or 2 μg membrane protein for membranes containing the human AT2 receptor in assay buffer (50 mM Tris/HCl pH 7.5 at 20° C., 5 mM MgCl2, 25 μM EDTA, 0.025% BSA). Saturation binding studies for determination of Kd values of the ligand were done using N-terminally Europium-labeled angiotensin-II ([Eu]AngII, H-(Eu-N^1)-Ahx-Asp-Arg-Val-Tyr-Ile-His-Pro-Phe-OH; PerkinElmer, Boston, Mass.) at 8 different concentrations ranging from 0.1 nM to 30 nM. […] Drugs were dissolved to a concentration of 1 mM in DMSO and from there serially diluted into assay buffer. Non-specific binding was determined in the presence of 10 μM unlabeled angiotensin-II. Assays were incubated for 120 minutes in the dark, at room temperature or 37° C., and binding reactions were terminated by rapid filtration through the Acrowell filter plates followed by three washes with 200 μL ice cold wash buffer (50 mM Tris/HCl pH 7.5 at 4° C., 5 mM MgCl2) using a Waters filtration manifold. Plates were tapped dry and incubated with 50 μl DELFIA Enhancement Solution (PerkinElmer cat.#4001-0010) at room temperature for 5 minutes on a shaker. Filter-bound [Eu]AngII was quantitated immediately on a Fusion plate reader (PerkinElmer) using Time Resolved Fluorescence (TRF). Binding data were analyzed by nonlinear regression analysis with the GraphPad Prism Software package (GraphPad Software, Inc., San Diego, Calif.) using the 3-parameter model for one-site competition. The BOTTOM (curve minimum) was fixed to the value for nonspecific binding, as determined in the presence of 10 μM angiotensin II. Ki values for drugs were calculated from observed IC50 values and the Kd value of [Eu]AngII according to the Cheng-Prusoff equation described in Cheng et al. (1973) Biochem Pharmacol. 22 (23):3099-108. Selectivities of test compounds for the AT1 receptor over the AT2 receptor were calculated as the ratio of AT2Ki/AT1Ki. […]

The target in test [2] is T2, NEP enzyme (Homo sapiens, UniProt P08473).
T2 construct: purchased R&D Systems, Minneapolis, Minn; 1182-ZN
The test can be described thus: NEP enzyme inhibition assay (fluorogenic peptide substrate). In kind it is biochemical. The settings on record: values given as lower bounds; * = prodrugs, may not exhibit NEP activity in an in vitro assay; read-out: NEP pIC50 (converted). The method, then:
B. In Vitro Assays for the Quantitation of Inhibitor Potencies (IC50) at Human and Rat NEP, and Human ACE
The inhibitory activities of compounds at human and rat NEP and human ACE were determined using in vitro assays as described below.
Recombinant human NEP and recombinant human ACE were obtained commercially (R&D Systems, Minneapolis, Minn., catalog numbers 1182-ZN and 929-ZN, respectively). The fluorogenic peptide substrate Mca-BK2 (Mca-Arg-Pro-Pro-Gly-Phe-Ser-Ala-Phe-Lys(Dnp)-OH; Johnson et al. (2000) Anal. Biochem. 286: 112-118) was used for the human NEP and ACE assays, and Mca-RRL (Mca-DArg-Arg-Leu-(Dnp)-OH; Medeiros et al. (1997) Braz. J. Med. Biol. Res. 30:1157-1162) was used for the rat NEP assay (both from Anaspec, San Jose, Calif.).
The assays were performed in 384-well white opaque plates at room temperature using the respective fluorogenic peptides at a concentration of 10 μM in assay buffer (50 mM Tris/HCl at 25° C., 100 mM NaCl, 0.01% Tween-20, 1 μM Zn, 0.025% BSA). […] The rat NEP enzyme preparation was used at a concentration that yielded quantitative proteolysis of 3 μM of Mca-RRL within 20 minutes at room temperature.
Test compounds were diluted to 12 concentrations from 10 μM to 20 pM in Assay Buffer. Assays were started by adding 25 μL of enzyme to 12.5 μL of test compound at each of the 12 concentrations. Test compounds were allowed to equilibrate with the enzyme for 10 minutes before 12.5 μL of the fluorogenic substrates were added to initiate the reaction. Reactions were terminated by the addition of 10 μL of 3.6% glacial acetic acid after 20 minutes of incubation.
For sulfhydryl-containing test compounds, the test compounds may be diluted in Assay Buffer containing a 400 μM concentration of tris(2-carboxyethyl)phosphine hydrochloride (Thermo Scientific, Rockford, Ill.) (TCEP). The test compounds are then incubated for 40 minutes at room temperature (to allow for dimer cleavage) before adding the enzyme. Test compounds are then allowed to equilibrate with the enzyme for 20 minutes before adding the fluorogenic substrates. Reactions are terminated as above.
Plates were read on a fluorometer with excitation and emission wavelengths set to 320 nm and 405 nm, respectively. Raw data (relative fluorescence units) were normalized to % activity from the average high readings (no inhibition, 100% enzyme activity) and average low readings (full inhibition, highest inhibitor concentration, 0% enzyme activity) using three standard NEP and ACE inhibitors, respectively. Nonlinear regression of the normalized data was performed using a one site competition model (GraphPad Software, Inc., San Diego, Calif.). Data were reported as pIC50 values.

Experimental findings from patent US8350027B2, “Dual-acting pyrazole antihypertensive agents” (Theravance, Inc., priority 2009, dated 2013) are described below.

Bounds are passed on as bounds.

T2 sequence (P08473 52-750 limits assumed): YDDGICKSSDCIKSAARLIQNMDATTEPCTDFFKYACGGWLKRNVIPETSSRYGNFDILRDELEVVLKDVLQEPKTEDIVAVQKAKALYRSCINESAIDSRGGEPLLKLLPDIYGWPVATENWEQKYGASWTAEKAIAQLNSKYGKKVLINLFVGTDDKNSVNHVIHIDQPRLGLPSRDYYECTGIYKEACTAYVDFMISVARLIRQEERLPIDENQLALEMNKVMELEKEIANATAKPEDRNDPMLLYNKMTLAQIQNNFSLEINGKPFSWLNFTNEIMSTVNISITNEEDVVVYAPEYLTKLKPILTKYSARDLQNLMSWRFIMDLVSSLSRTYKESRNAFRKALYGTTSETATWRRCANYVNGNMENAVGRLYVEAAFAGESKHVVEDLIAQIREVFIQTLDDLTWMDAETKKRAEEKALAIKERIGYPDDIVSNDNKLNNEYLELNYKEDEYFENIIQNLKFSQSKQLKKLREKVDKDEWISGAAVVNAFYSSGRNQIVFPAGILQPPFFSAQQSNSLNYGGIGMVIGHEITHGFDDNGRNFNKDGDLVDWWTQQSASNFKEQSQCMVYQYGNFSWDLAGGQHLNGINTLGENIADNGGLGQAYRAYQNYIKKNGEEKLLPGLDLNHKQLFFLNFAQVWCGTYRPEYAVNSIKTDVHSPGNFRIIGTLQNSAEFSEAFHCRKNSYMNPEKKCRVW

Regarding `CCCc1cc(C(=O)N[C@H](Cc2ccccc2)[C@@H](O)C(=O)O)nn1Cc1ccc(-c2ccccc2S(=O)(=O)NC(=O)C(C)(C)O)cc1` [Example 7-14, (2R,3R)-2-Hydroxy-3-({1-[2′-(2-hydroxy-2-methylpropionylsulfamoyl)biphenyl-4-ylmethyl]-5-propyl-1H-pyrazole-3-carbonyl}amino)-4-phenylbutyric acid], the Ki in test [1] was no more than 10 nM. Besides, the IC50 in test [2] was no more than 100 nM.
On to `CCCc1cc(C(=O)N[C@H](Cc2ccccc2)[C@@H](O)C(=O)O)nn1Cc1ccc(-c2ccccc2S(=O)(=O)NC(C)=O)cn1` [Example 15-3, (2R,3R)-3-({1-[5-(2-Acetylsulfamoylphenyl)pyridin-2-ylmethyl]-5-propyl-1H-pyrazole-3-carbonyl}amino)-2-hydroxy-4-phenylbutyric acid], for which, in test [1], the Ki is no more than 100 nM. For the same molecule, the IC50 in test [2] is no more than 100 nM.
`CCCc1cc(C(=O)N[C@H](Cc2ccccc2)[C@@H](O)C(=O)O)nn1Cc1ccc(-c2ccccc2S(=O)(=O)NC(=O)OC)cc1` [Example 5, (2R,3R)-2-hydroxy-3-(1-((2′-(N-(methoxycarbonyl)-sulfamoyl)biphenyl-4-yl)methyl)-5-propyl-1H-pyrazole-3-carboxamido)-4-phenylbutanoic Acid]: the Ki in test [1] is no more than 10 nM. Besides, the IC50 in test [2] is no more than 100 nM.
In the case of `CCCCc1cc(C(=O)N[C@@H](CS)CC(C)C)nn1Cc1ccc(-c2ccccc2C(=O)O)cc1F` [Example 9-3, 4′-[5-Butyl-3-((R)-1-mercaptomethyl-3-methylbutylcarbamoyl)-pyrazol-1-ylmethyl]-3′-fluorobiphenyl-2-carboxylic acid], the Ki in test [1] is no more than 100 nM. For the same molecule, the IC50 in test [2] was no more than 100 nM.
As for `CCCc1cc(C(=O)N[C@@H](CC(=O)O)Cc2ccccc2Cl)nn1Cc1cnc(-c2ccccc2-c2nnn[nH]2)cn1` [Example 17-2, (R)-4-(2-Chlorophenyl)-3-[(5-propyl-1-{5-[2-(1H-tetrazol-5-yl)phenyl]pyrazin-2-ylmethyl}-1H-pyrazole-3-carbonyl)amino]butyric acid], the Ki in test [1] was no more than 10 nM. Besides, the IC50 in test [2] is no more than 1000 nM.
Taken in the same sequence, the figures for `CCCc1cc(C(=O)N[C@H](Cc2ccccc2)[C@@H](O)C(=O)O)nn1Cc1ccc(-c2ccccc2S(=O)(=O)NC(=O)C(C)C)cc1` [Example 6-12, (2R,3R)-2-Hydroxy-3-{[1-(2′-isobutyrylsulfamoylbiphenyl-4-ylmethyl)-5-propyl-1H-pyrazole-3-carbonyl]amino}-4-phenylbutyric acid] were no more than 10 nM and no more than 1000 nM.
On to `CCCc1cc(C(=O)N[C@@H](CC(=O)O)Cc2ccccc2Cl)nn1Cc1cnc(-c2ccccc2S(=O)(=O)NC(C)=O)cn1` [Example 17-6, (R)-3-({1-[5-(2-Acetylsulfamoyl-phenyl)-pyrazin-2-ylmethyl]-5-propyl-1H-pyrazole-3-carbonyl}amino)-4-(2-chloro-phenyl)butyric acid], for which the Ki in test [1] was no more than 10 nM. Moreover, the IC50 in test [2] is no more than 1000 nM.
The corresponding values for `CCCc1cc(C(=O)N[C@H](Cc2ccccc2)[C@@H](O)C(=O)O)nn1Cc1ccc(-c2ccccc2S(=O)(=O)NC(C)=O)nc1` [Example 13, (2R,3R)-3-({1-[6-(2-Acetylsulfamoylphenyl)pyridin-3-ylmethyl]-5-propyl-1H-pyrazole-3-carbonyl}amino)-2-hydroxy-4-phenylbutyric Acid] are no more than 100 nM and no more than 100 nM.
Regarding `CCOc1cc(C(=O)N[C@@H](CS)Cc2ccccc2)nn1Cc1ccc(-c2ccccc2C(=O)O)cc1F` [Example 9-2, 4′-[3-((R)-1-Benzyl-2-mercaptoethylcarbamoyl)-5-ethoxypyrazol-1-ylmethyl]-3′-fluorobiphenyl-2-carboxylic acid], the Ki in test [1] is no more than 100 nM. The IC50 in test [2] is no more than 100 nM.
With `CCCc1cc(C(=O)N[C@H](Cc2ccccc2)CN(O)C=O)nn1Cc1ccc(-c2ccccc2-c2nnn[nH]2)cc1` [Example 3-14, 5-Propyl-1-[2′-(1H-tetrazol-5-yl)-biphenyl-4-ylmethyl]-1H-pyrazole-3-carboxylic acid [(R)-1-benzyl-2-(formylhydroxyamino)ethyl]amide], in test [1], the Ki is no more than 10 nM. Besides, in test [2], the IC50 was no more than 100 nM.
Regarding `CCCc1cc(C(=O)N[C@H](Cc2ccccc2)[C@@H](O)C(=O)O)nn1Cc1ccc(-c2ccccc2S(=O)(=O)NC(C)=O)cc1F` [Example 6-14, (2R,3R)-3-(1-((2′-(N-acetylsulfamoyl)-3-fluorobiphenyl-4-yl)methyl)-5-propyl-1H-pyrazole-3-carboxamido)-2-hydroxy-4-phenylbutanoic acid], the Ki in test [1] is no more than 10 nM. Moreover, the IC50 in test [2] is no more than 100 nM.
